The structures appear in SMILES notation.

The subject of assay [1] is Sprague-Dawley (SD) rats, formalin-induced flinching. Put plainly: Analgesic effects in the formalin test. The assay is classed as in vivo, rat. As to the method:
Four test groups each composed of 7 male Sprague-Dawley: SD rats (9 weeks old) were used for the experiment. In the control group, 0.5% tragacanth solution was given to the rats. In other test groups, 0.3, 3 or 30 mg/kg of the compound obtained in Example 11 (compound A) was given to them. Compound A was used in the form of a suspension thereof in 0.5% tragacanth solution.
Five ml/kg of 0.5% tragacanth solution or compound A was orally administered to the rats. Three hours after, the rats were tranquilized with halothane, and 2.5% formalin solution (100 μl) was injected subcutaneously to dorsal surface of the left hindpaw. Immediately thereafter, the rats were awaken from the anesthesia. […] The number of times of retracting action, i.e., flinching action of the hindpaw in which formalin had been injected, was counted for 1 minute at an interval of one minute until 5 minutes after the formalin injection, and for 1 minute at an interval of 5 minutes from 10 to 60 minutes after the injection. As reported in a literature (J. Pharmacol. Exp. Ther. 263: 136-146, 1992), the pain reaction by the stimulation with formalin appeared in two phases. The total number of times of the flinching action observed 10 to 60 minutes after the formalin injection (the second phase) was taken as the index of the pain action.
The experiment was conducted in the same manner as that in above Test Example 3 except for the followings.
Five test groups each composed of 6 male Sprague-Dawley (SD) rats (9 weeks old) were used for the experiment. In the control group, polyethylene glycol 400 was given to the rats. In the other test groups, 3, 30, 100 or 300 mg/kg of the compound obtained in Example 71 (compound B) was given to them. Compound B was used in the form of a solution thereof in polyethylene glycol 400 (PEG).
Three ml/kg of PEG or compound B was orally administered to the rats.

The test system of assay [2] is Sprague-Dawley (SD) rats, partial sciatic nerve ligation (Seltzer model). Nature of the assay: Analgesic effects on a neuropathic pain model (partial sciatic nerve ligation model, mechanical allodynia, von Frey filaments). The assay is classed as in vivo, rat. Particulars: one hour after administration. The method, then:
The effect of compound A in improving mechanical allodynia was evaluated using the partial sciatic nerve ligation model (Seltzer model, Pain, 43: 205-218, 1990) which belongs to the neuropathic pain models. For detecting the mechanical allodynia, the sole of the right paw of each rat was stimulated with von Frey filaments, and the threshold of the reaction for the mechanical stimulation (50% threshold) was determined according to a method of Chaplan et al. (J. Neurosci. Methods, 53: 55-63, 1994). In this step, the stimulation of the sole of the paw with each filament was repeated 8 times at a rate of about twice a second.
About a half thickness of the right sciatic nerve of each 8 week-old male Sprague-Dawley (SD) rat, whose reaction threshold was determined before the nerve injury, was ligated with a surgical suture to partially injure the nerve according to a method of Seltzer et al. (Pain, 43: 205-218, 1990). Six days after the nerve injury, the reaction threshold of the right hindpaw was determined and compared with that determined before the nerve injury. Individuals having a threshold far lower than that determined before the nerve injury [i.e. rats showing mechanical allodynia] were selected for evaluating allodynia improving effect. Seven and 9 days after the nerve injury, the reaction threshold of the rats selected for the purpose of the evaluation was determined before compound administration. […] One hour after the administration, the reaction threshold of each rat was determined.
The effect of compound B in improving mechanical allodynia was evaluated using the partial sciatic nerve ligation model (Seltzer model, Pain, 43: 205-218, 1990) which belongs to the neuropathic pain models. […] Six days after the nerve injury, the reaction threshold of the right hindpaw was determined and was compared with that determined before the nerve injury. Individuals having a threshold far lower than that determined before the nerve injury [i.e. rats showing mechanical allodynia] were selected for evaluating allodynia improving effect. […]

For `CC(C)(C)C(=O)NCCC(=O)N1CCC(=C2c3ccccc3C=Cc3ccccc32)CC1` [Example 11, N-{3-[4-(5H-dibenzo[a,d][7]annulen-5-ylidene)-1-piperidinyl]-3-oxopropyl}-2,2-dimethylpropanamide], the “inhibiting ratio of flinches (second phase, 10 to 60 min) based on control group” value in assay [1] (0.3 mg/kg oral, suspension in 0.5% tragacanth, 3 hours before formalin) is on record as 10%; in assay [1] (3 mg/kg oral, suspension in 0.5% tragacanth, 3 hours before formalin), 42%; in assay [1] (30 mg/kg oral, suspension in 0.5% tragacanth, 3 hours before formalin), 37%. For the same molecule, in assay [2] (3 mg/kg oral in 0.5% tragacanth), the “reaction threshold for mechanical stimulation (50% threshold) after the administration” value is listed as “increased”.
For the molecule `CC(C)(C)C(=O)N[C@H](CO)CCC(=O)N1CCC(=C2c3ccccc3C=Cc3ccccc32)CC1` [Example 71, (S)-N-[4-[4-(5H-dibenzo[a,d][7]annulen-5-ylidene)-1-piperidinyl]-1-(hydroxylmethyl)-4-oxobutyl]-2.2-dimethylpropanamide], the “inhibiting ratio of flinches (second phase, 10 to 60 min) based on control group” value in assay [1] (3 mg/kg oral, solution in polyethylene glycol 400) was 11%; in assay [1] (30 mg/kg oral, solution in polyethylene glycol 400) it was 33%; in assay [1] (100 mg/kg oral, solution in polyethylene glycol 400), 53%; in assay [1] (300 mg/kg oral, solution in polyethylene glycol 400), 59%. In addition, the entries for the “reaction threshold for mechanical stimulation (50% threshold) after the administration” value in assay [2] (3 mg/kg oral in PEG) and in assay [2] (100 mg/kg oral in PEG) were “hardly changed” and “clearly increased”, respectively.

Values taken from US7462630B2, “Diarylalkene derivatives and novel diarylalkane derivatives” (Ajinomoto Co., Inc., priority 2001, dated 2008).
